The term IC50 denotes the concentration that gives 50% inhibition. Read a low IC50 as greater potency in that assay.

What all share (format): functional, cell-based
Assay [1] deals with N9. In words: Compound was tested for the inhibition of 1-40 beta-Amyloid Production in N9 cell line expressing beta-APP (wascreated by transfecting the human cDNA encoding beta-APP 695) by using immunoprecipitation assay.
Assay [2] concerns N9. In words: Compound was tested for the inhibition of 1-42 beta-Amyloid Production in N9 cell line expressing beta-APP (wascreated by transfecting the human cDNA encoding beta-APP 695) by using immunoprecipitation assay.
The subject of assay [3] is N9. The experiment in a line: Compound was tested for the inhibition of beta-Amyloid Production in N9 cell line expressing beta-APP. The following applies: Homo sapiens.
For assay [4], the system named is N9. In words: Compound was tested for the inhibition of total beta-Amyloid Production in N9 cell line expressing beta-APP (wascreated by transfecting the human cDNA encoding beta-APP 695) by using enzyme-linked immunosorbent assay.
Assay [5] relates to N9. The experiment in a line: Compound was tested for the inhibition of total beta-Amyloid Production in N9 cell line expressing beta-APP (wascreated by transfecting the human cDNA encoding beta-APP 695) by using immunoprecipitation assay.

As for `CCC(C)[C@H](NC(=O)/C=C/c1cc(OC)cc(OC)c1)C(=O)N[C@H](C=O)CC(C)C` (stereo not given in full), the IC50 was 22 µM in assay [1]; above 50 µM in assay [2]; 9.6 µM in assay [3]; 10 µM in assay [4]; 15 µM in assay [5].

The values above are taken from ChEMBL document CHEMBL1132400, “A combinatorial approach to the identification of dipeptide aldehyde inhibitors of beta-amyloid production” (J Med Chem, 1999).
